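Following 48 hours of exposure in 96-well plates, responses at five concentrations were used to interpolate endpoints linearly. GI50 is the concentration that inhibits growth by half. Definition used: TGI = concentration required for complete inhibition of growth.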
How the values were obtained:
Assay in all cases: NCI anticancer screen, dose series, 48 h
[1] = tested on: NCI-H522 lung
[2] = tested on: TK-10 renal
[3] = tested on: SNB-75 CNS
[4] = tested on: UO-31 renal
[5] = tested on: SW-620 colon
[6] = tested on: U251 CNS
[7] = tested on: UACC-257 melanoma
[8] = tested on: ACHN renal
[9] = tested on: NCI-H460 lung
[10] = tested on: T-47D breast
[11] = tested on: MCF7 breast
[12] = tested on: BT-549 breast

| Structure (SMILES) | TGI [1] [µM] | TGI [2] [µM] | TGI [3] [µM] | TGI [4] [µM] | TGI [5] [µM] | TGI [6] [µM] | TGI [7] [µM] | TGI [8] [µM] | TGI [9] [µM] | TGI [10] [µM] | TGI [11] [µM] | TGI [12] [µM] | GI50 [1] [µM] | GI50 [10] [µM] | GI50 [2] [µM] | GI50 [12] [µM] | GI50 [4] [µM] | GI50 [6] [µM] | GI50 [7] [µM] | GI50 [8] [µM] |
| --- | --- | --- | --- | --- | --- | --- | --- | --- | --- | --- | --- | --- | --- | --- | --- | --- | --- | --- | --- | --- |
| Cc1ccc(N2C(=O)/C(=c3\s/c(=C(/N)O)c(=N)n3-c3ccccc3)SC2=S)cc1 | > 100 | > 100 | 28 | > 100 | > 100 | > 100 | > 100 | > 100 | > 100 | – | – | – | – | – | – | – | – | – | – | – |
| CCCCCCCCCCCCCCCCCC(=O)NCCCNCCCNC(=O)CCCCCCCCCCCCCCCCC | – | > 100 | – | > 100 | > 100 | > 100 | > 100 | > 100 | > 100 | – | – | – | – | – | – | – | – | – | – | – |
| Cc1[nH]n(-c2ccccc2)c(=S)c1C(=O)c1ccccc1 | > 100 | 94.4 | > 100 | > 100 | > 100 | > 100 | > 100 | > 100 | – | – | – | – | – | – | – | – | – | – | – | – |
| COc1ccc(C2=C(OC(C)=O)c3cccn3-c3ccccc3S2)cc1 | – | > 10 | > 10 | – | > 10 | – | > 10 | – | – | > 10 | > 10 | – | – | – | – | – | – | – | – | – |
| C=C1C(=O)C=C2C=C3C(=O)C(C)(C)C[C@]3(O)C12C (stereo partly drawn) | 3.38 | 3.42 | 31.4 | 14 | 3.23 | 34 | 9.13 | 4.53 | 38.2 | 5.98 | – | 3.05 | – | – | – | – | – | – | – | – |
| COC(=O)c1ccccc1CC1Cc2cc3c(cc2C1)CCC3 | 91.6 | > 100 | > 100 | > 100 | > 100 | > 100 | 73.1 | > 100 | > 100 | > 100 | > 100 | – | – | – | – | – | – | – | – | – |
| CCOc1ccc(N=Cc2cc(OC)c(OC)c(OC)c2)cc1 | > 100 | > 100 | > 100 | > 100 | 32.1 | > 100 | > 100 | > 100 | > 100 | – | – | – | – | – | – | – | – | – | – | – |
| Cc1c2n(c3ccccc13)CC1C2N(C)OC1(C)C (stereo not drawn) | > 100 | – | > 100 | > 100 | – | – | > 100 | > 100 | > 100 | – | – | – | – | – | – | – | – | – | – | – |
| CC(O[Si](C)(C)C(C)(C)C)[C@H](NC(=O)OCC(Cl)(Cl)Cl)C(=O)O (stereo partly drawn) | > 100 | > 100 | – | > 100 | > 100 | > 100 | > 100 | > 100 | > 100 | > 100 | > 100 | > 100 | – | – | – | – | – | – | – | – |
| Cc1c(-c2ccccc2)n(C)c2cn[nH]c(=O)c12 | > 100 | > 100 | – | > 100 | > 100 | > 100 | > 100 | > 100 | > 100 | – | > 100 | > 100 | – | – | – | – | – | – | – | – |
| O=S(=O)(Nc1ccccc1S(=O)(=O)c1ccccc1)c1ccccc1 | > 100 | > 100 | > 100 | > 100 | > 100 | > 100 | > 100 | > 100 | – | > 100 | > 100 | > 100 | – | – | – | – | – | – | – | – |
| CCCCc1ccc(Nc2nc(Cl)c3[nH]cnc3n2)cc1 | 65.3 | 50.6 | 85.4 | 72.5 | 37.4 | – | 30.8 | > 100 | – | 37.2 | 37.9 | 65.4 | – | – | – | – | – | – | – | – |
| O=C(c1nsc(Cl)c1Cl)N1CCCCC1 | – | > 100 | > 100 | > 100 | > 100 | > 100 | > 100 | – | – | – | > 100 | > 100 | – | – | – | – | – | – | – | – |
| Clc1ccc2c(NCCNc3nc(-c4ccccc4)cc(-c4ccccc4)n3)ccnc2c1 | 3.76 | 3.41 | – | 3.01 | – | 3.59 | 3.98 | 3.1 | – | 3.47 | – | 3.2 | 1.87 | 1.5 | 1.86 | 1.57 | 1.54 | 1.96 | 2.03 | 1.7 |
| COc1cc(Cn2c3c(c4cc(O)ccc42)C(=O)c2ccccc2C3=O)cc(OC)c1 | 12.5 | 34.9 | – | 30.4 | > 100 | 18.6 | > 100 | 7.61 | 32.9 | 32.1 | 50.6 | 4.86 | – | – | – | – | – | – | – | – |
| CCC(C)(C)NC1=C(NC(C)=O)C(=O)c2ccccc2C1=O | 28.7 | > 75 | > 75 | > 75 | > 75 | > 75 | 70.7 | 43.2 | > 75 | – | – | – | – | – | – | – | – | – | – | – |
| CC(=O)CN=C(C)NNc1ccc([N+](=O)[O-])cc1[N+](=O)[O-] | > 100 | – | > 100 | > 100 | > 100 | > 100 | – | > 100 | > 100 | > 100 | > 100 | – | – | – | – | – | – | – | – | – |
| N#Cc1c(N2CCOCC2)ncn(-c2ccccc2)c1=O | – | – | > 100 | > 100 | > 100 | > 100 | > 100 | > 100 | > 100 | > 100 | > 100 | > 100 | – | – | – | – | – | – | – | – |
| CC(C)(C)OC(=O)C1/C(=C/CO)CN1C(=O)OC(C)(C)C (stereo not drawn) | – | > 100 | – | > 100 | > 100 | – | > 100 | > 100 | > 100 | – | > 100 | > 100 | – | – | – | – | – | – | – | – |
| CCN(CC)CC(C)(C)C(=O)/C=C/c1ccc(C)cc1 | 8.93 | 27.9 | 23.5 | 22.2 | 15.7 | 28.6 | – | 27.9 | 19.4 | – | – | – | – | – | – | – | – | – | – | – |
| Cc1cc2c3c(ccc4ncc(c43)CN2c2ccc(NS(C)(=O)=O)cc2)[nH]1 | > 100 | 73.1 | 44.3 | 78.4 | > 100 | > 100 | > 100 | > 100 | > 100 | – | > 100 | > 100 | – | – | – | – | – | – | – | – |
| c1ccc2cc3n[se]nc3cc2c1 | > 100 | > 100 | > 100 | > 100 | > 100 | > 100 | > 100 | > 100 | – | – | – | – | – | – | – | – | – | – | – | – |
| Nc1nc(Nc2ccc(Cl)cc2)sc1C(=O)c1cc2ccccc2oc1=O | – | > 100 | 68.8 | > 100 | > 100 | > 100 | > 100 | > 100 | > 100 | > 100 | > 100 | > 100 | – | – | – | – | – | – | – | – |
